Laboratory results as given in PubChem BioAssay (NCI).
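All cell lines were grown in 96-well plates and treated with compound for 48 hours. Here, GI50 denotes the concentration required for 50% inhibition of growth. At the TGI there is no net growth.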

How the values were obtained:
Experiment in all cases: NCI tumour cell line growth inhibition, 48 h
A498 renal = system: A498 renal
HOP-92 NSCLC = system: HOP-92 NSCLC
LOX IMVI melanoma = system: LOX IMVI melanoma
MOLT-4 leukemia = system: MOLT-4 leukemia
SK-MEL-5 melanoma = system: SK-MEL-5 melanoma
T-47D breast = system: T-47D breast
TK-10 renal = system: TK-10 renal

Compound	GI50 (A498 renal) [nM]	TGI (A498 renal) [µM]	GI50 (HOP-92 NSCLC) [µM]	TGI (HOP-92 NSCLC) [µM]	GI50 (LOX IMVI melanoma) [µM]	TGI (LOX IMVI melanoma) [µM]	GI50 (MOLT-4 leukemia) [nM]	TGI (MOLT-4 leukemia) [µM]	GI50 (SK-MEL-5 melanoma) [µM]	TGI (SK-MEL-5 melanoma) [µM]	GI50 (T-47D breast) [µM]	TGI (T-47D breast) [µM]	GI50 (TK-10 renal) [µM]	TGI (TK-10 renal) [µM]
ClCc1cccc(Cn2cnc3c(NC45CC6CC(CC(C6)C4)C5)ncnc32)c1	15400	31.7	17.3	34.5	15.7	31.7	9920	36	16.4	31.7	15.1	36.6	20.5	44.7
CC(C)(C#N)c1cc(Cn2cncn2)cc(C(C)(C)C#N)c1	–	–	297	2980	> 10000	> 10000	–	–	106	> 10000	6760	> 10000	564	> 10000
COc1ccc(N2C(=O)CC(Cl)C2=O)cc1 (stereo not drawn)	–	> 100	–	73.7	–	58.9	–	–	–	> 100	–	38.4	–	32.9
CC1=C2[C@@H](CC1)[C@]1(C)O[C@@](C3CCCCC3)(C[C@H]1OC(=O)CO)[C@H]2OC(=O)/C=C/c1ccccc1	20.8	0.0731	3.68	12.2	5.31	11.2	5820	17.4	12	24.9	4.69	17.5	12.3	26.5
COc1cc2c(cc1OCCCOc1cc3c(cc1OC)C(=O)N1C[C@H](F)C[C@H]1C=N3)N=C[C@@H]1C[C@@H](F)CN1C2=O	–	–	5.18	18	2.41	10.5	1330	4.3	–	–	15.9	58	15	28.2
COc1cc(Nc2nccc(Nc3ccc4c(C)[nH]nc4c3)n2)cc(OC)c1OC	253	1.94	0.191	1.38	0.963	3.98	4870	19.2	2.69	5.96	1.44	7.46	0.908	3.88
CC(=O)c1c(C)[nH]c(-c2nc3ccc(N4CCN(C)CC4)cc3[nH]2)c1-c1ccc(OCC2CCOCC2)cc1	345	2.2	0.11	2.79	0.318	1.45	1630	20.6	0.966	3.17	0.445	20.6	0.306	16.8
COc1cc(/C=C/C(=O)CC(=O)/C=C/c2cc(OC)c(OC)c(OC)c2)cc(OC)c1OC	10400	42.9	2.47	8.34	2.19	9.14	2980	> 100	4.51	46	3.98	84.5	4.08	19.2
O=c1c(Oc2ccc(F)cc2F)cc2cnc(NC3CCOCC3)nc2n1C1CCS(=O)(=O)CC1	> 25000	> 25	> 25	> 25	> 25	> 25	> 25000	> 25	> 25	> 25	> 25	> 25	> 25	> 25
COc1cc(OC)cc(C2CC(=O)Nc3c2c(C)nn3-c2nc3ccccc3[nH]2)c1 (stereo not drawn)	2110	4.69	2.59	6.63	2.09	4.44	72.8	0.434	1.97	4.27	3.5	> 100	3.04	45.5
CC(O)c1cccc(NCc2c3ccccc3c(=O)n3c2oc2ccccc23)c1 (stereo not drawn)	1610	4.93	5.4	44.3	8.02	36	5030	> 100	4.87	31.6	14.4	64.6	5.7	28
CCN1CCN(C(=O)[C@]23CC[C@@H](C)[C@H](C)[C@@H]2C2=CC[C@@H]4[C@@]5(C)C/C(=C/c6ccncc6)C(=O)C(C)(C)[C@@H]5CC[C@@]4(C)[C@]2(C)CC3)CC1	1490	2.9	1.14	2.51	1.51	2.98	1780	4.57	1.75	3.14	1.56	3.49	1.73	3.31
CCOC(=O)C(Cc1c[nH]c2ccc(N)cc12)(NC(C)=O)C(=O)OCC	–	–	> 1000	> 1000	> 1000	> 1000	–	–	> 1000	> 1000	728	> 1000	> 1000	> 1000
Cn1c([N+](=O)[O-])cnc1/C=C1\Oc2ccccc2C1=O	–	–	0.762	3.37	0.176	0.506	159	0.758	0.234	0.727	12.7	68.8	1.29	7.77
CCOC(=O)c1cc(C#N)c(=O)n(/N=C(\C)c2ccncc2)c1O	–	–	> 100	> 100	> 100	> 100	> 100000	> 100	> 100	> 100	> 100	> 100	> 100	> 100
COc1cc(OC)c(/C=C/S(=O)(=O)Cc2cnc(OC)c(N)c2)c(OC)c1	< 10	> 100	–	–	< 0.0233	> 100	< 21.8	> 100	< 0.014	0.721	–	–	> 100	> 100
CN1CCN(CCCN)CC1	–	> 100	–	–	–	> 100	–	> 100	–	> 100	–	> 100	–	> 100
CCC1(CC)C(=O)OC(=O)C1(CC)CC	–	> 100	–	–	–	> 100	–	> 100	–	> 100	–	> 100	–	> 100
